# According to patent EP1149092B1, “4- AND 5-ALKYNYLOXINDOLES AND 4- AND 5-ALKENYLOXINDOLES” (F. HOFFMANN-LA ROCHE AG, priority 1998, dated 2000):
# Target: rat SAPK (isoform β) (Rattus norvegicus, UniProt P49187)
# Assay: SAPK FlashPlate Assay (inhibition of cJun phosphorylation)
# Format: biochemical
# Conditions: GST-cJun substrate, 30 minutes at 37 °C
# Method: "IC50" refers to the concentration of a particular 4- or 5-alkynyloxindole or 4-or 5-alkenyloxindole required to inhibit 50% of cJun phosphorylation, which is a measure of inhibition of SAPK activity. IC50 can be measured, inter alia, using the assay described herein in Example 102.
# Human JNK is highly homologous to rat SAPK. To measure the inhibitory activity of test compounds, the compounds were tested in the rat SAPK assay.
# For the SAPK assay, purified GST-cJun (a chimeric protein containing cJun, a natural substrate of JNK) was coated on 96 well FlashPlates (New England Nuclear, Boston, MA). Purified rat SAPK (isoform β, Kyriakis et al. supra) was preincubated with preparations containing MEKK-1 and MKK4 for 30 minutes at 37 °C in assay buffer containing 25 mM HEPES, pH 7.5, 150 mM NaCl, 20 mM MgCl2, 2 mM DTT, 0.001% Tween 20, 1 µM ATP freshly added. In the preincubation step, MEKK-1 phosphorylates and activates MKK-4, which in tum phosphorylates and activates SAPK. The activated SAPK was then added to the cJun coated FlashPlates along with ^33P-ATP (0.32 µCi per reaction) and test compounds. The plates were incubated for 30 minutes at 37 °C, then washed with PBS, 0.01% Tween 20, and counted in the Topcount scintillation counter (Packard Instrument Co., Downers Grove, IL). Dilutions of compounds were tested in duplicate in each assay. The percent inhibition of cJun phosphorylation (a measure of inhibition of SAPK activity) was determined by the following formula: [formula] where "test compound" refers to the average counts per minute of the test duplicates, "nonspecific" refers to the average counts per minute when no SAPK was added, and "total" refers to the average counts per minute when no compound was added.
# rat SAPK (isoform β), sequence (P49187 whole entry, canonical isoform): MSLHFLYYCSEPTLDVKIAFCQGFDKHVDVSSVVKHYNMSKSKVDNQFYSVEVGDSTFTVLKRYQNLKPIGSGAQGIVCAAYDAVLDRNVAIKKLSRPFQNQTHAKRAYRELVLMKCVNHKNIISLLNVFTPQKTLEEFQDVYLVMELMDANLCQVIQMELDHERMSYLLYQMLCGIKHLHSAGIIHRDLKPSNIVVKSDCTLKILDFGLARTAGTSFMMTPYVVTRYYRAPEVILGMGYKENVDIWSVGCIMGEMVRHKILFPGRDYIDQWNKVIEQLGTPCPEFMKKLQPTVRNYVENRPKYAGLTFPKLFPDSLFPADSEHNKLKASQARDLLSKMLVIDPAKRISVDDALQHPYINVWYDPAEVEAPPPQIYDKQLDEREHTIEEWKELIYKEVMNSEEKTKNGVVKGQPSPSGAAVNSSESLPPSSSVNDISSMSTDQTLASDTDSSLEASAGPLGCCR
row,IC50 [µM],Structure (SMILES)
1,< 1,"COc1cc[nH]c1/C=C1\C(=O)Nc2cccc(C#CC(O)c3ccc(NC(C)=O)cc3)c21 (racemic) [BBB, rac-(Z)-4-[3-(4-Acetamidophenyl)-3-hydroxy-1-propynyl]-1,3-dihydro-3-[(3-methoxy-1H-pyrrol-2-yl)methylene]-2H-indol-2-one]"
2,< 1,"COc1ccccc1C(O)C#Cc1cccc2c1/C(=C/c1[nH]ccc1OC)C(=O)N2 (racemic) [Compound M, rac-(Z)-1,3-Dihydro-4-[3-hydroxy-3-(2-methoxyphenyl)-1-propynyl]-3-[(3-methoxy-1H-pyrrol-2-yl)methylene]-2H-indol-2-one]"
3,< 1,"COc1cc(C(O)C#Cc2cccc3c2/C(=C/c2[nH]ccc2OC)C(=O)N3)ccc1OCCN1CCOCC1 (racemic) [Compound MM, rac-(Z)-1,3-Dihydro-4-[3-hydroxy-3-[3-methoxy-4-[2-(4-morpholinyl)-ethoxy]-phenyl]-1-propynyl]-3-[(3-methoxy-1H-pyrrol-2-yl)methylene]-2H-indol-2-one]"
4,0.253,"COc1cc[nH]c1/C=C1\C(=O)Nc2cccc(C#CC(C)(O)c3ccccc3)c21 (racemic) [Compound T, rac-(Z)-1,3-Dihydro-4-[3-hydroxy-3-phenyl-1-butynyl]-3-[(3-methoxy-1H-pyrrol-2-yl)methylene]-2H-indol-2-one]"
5,< 1,"COc1cc[nH]c1/C=C1\C(=O)Nc2cccc(C#CC(O)c3ccc(OCCN4CCOCC4)cc3)c21 (racemic) [Compound TT, rac-(Z)-1,3-Dihydro-4-[3-hydroxy-3-[4-[2-(4-morpholinyl)-ethoxy]-phenyl]-1-propynyl]-3-[(3-methoxy-1H-pyrrol-2-yl)methylene]-2H-indol-2-one]"
6,< 1,"COc1cc[nH]c1/C=C1\C(=O)Nc2cccc(C#CC(O)c3ccc[nH]3)c21 (racemic) [DD, rac-(Z)-1,3-Dihydro-4-[3-hydroxy-3-(1H-pyrrol-2-yl)-1-propynyl]-3-[(3-methoxy-1H-pyrrol-2-yl)methylene]-2H-indol-2-one]"
7,< 1,"COc1ccc(C(O)C#Cc2cccc3c2/C(=C/c2[nH]ccc2OC)C(=O)N3)cc1OC (racemic) [FF, rac-(Z)-1,3-Dihydro-4-[3-(3,4-dimethoxyphenyl)-3-hydroxy-1-propynyl]-3-[(3-methoxy-1H-pyrrol-2-yl)methylene]-2H-indol-2-one]"
8,< 1,"COc1ccc(C(O)C#Cc2cccc3c2/C(=C/c2[nH]ccc2OC)C(=O)N3)cc1O (racemic) [HH, rac-(Z)-1,3-Dihydro-4-[3-hydroxy-3-(3-hydroxy-4-methoxyphenyl)-1-propynyl]-3-[(3-methoxy-1H-pyrrol-2-yl)methylene]-2H-indol-2-one]"
9,< 1,"COc1cc[nH]c1/C=C1\C(=O)Nc2cccc(C#CC(O)c3sccc3OC)c21 (racemic) [OO, rac-(Z)-1,3-Dihydro-4-[3-hydroxy-3-(3-methoxy-2-thiophenyl)-1-propynyl]-3-[(3-methoxy-1H-pyrrol-2-yl)methylene]-2H-indol-2-one]"
10,< 1,"COc1cc(OC)c(C(O)C#Cc2cccc3c2/C(=C/c2[nH]ccc2OC)C(=O)N3)cc1OC (racemic) [PP, rac-(Z)-1,3-Dihydro-4-[3-hydroxy-3-(2,4,5-trimethoxyphenyl)-1-propynyl]-3-[(3-methoxy-1H-pyrrol-2-yl)methylene]-2H-indol-2-one]"
11,< 1,"COc1cc[nH]c1/C=C1\C(=O)Nc2cccc(C#CC(O)c3ccc(O)cc3)c21 (racemic) [Q, rac-(Z)-1,3-Dihydro-4-[3-hydroxy-3-(4-hydroxyphenyl)-1-propynyl]-3-[(3-methoxy-1H-pyrrol-2-yl)methylene]-2H-indol-2-one]"
12,< 1,"COc1cc(C(O)C#Cc2cccc3c2/C(=C/c2[nH]ccc2OC)C(=O)N3)ccc1OCC(=O)O (racemic) [RR, rac-(Z)-[4-[3-[2,3-Dihydro-3-[(3-methoxy-1H-pyrrol-2-yl)methylene]-2-oxo-1H-indol-4-yl]-1-hydroxy-2-propynyl]-2-methoxyphenoxy]acetic acid]"
13,< 1,"COc1cc[nH]c1/C=C1\C(=O)Nc2cccc(C#CC(O)c3cc(OC)c4c(c3)OCO4)c21 (racemic) [SS, rac-(Z)-4-[3-hydroxy-3-(4-methoxy-1,3-benzodioxol-6-yl)-1-propynyl]-1,3-dihydro-3-[(3-methoxy-1H-pyrrol-2-yl)methylene]-2H-indol-2-one]"
14,< 1,"COc1cc[nH]c1/C=C1\C(=O)Nc2cccc(C#CC(O)c3ccc(Cl)cc3OCSC)c21 (racemic) [UU, rac-(Z)-4-[3-(4-Chloro-2-methylsulfanylmethoxyphenyl)-3-hydroxy-1-propynyl]-1,3-dihydro-3-[(3-methoxy-1H-pyrrol-2-yl)methylene]-2H-indol-2-one]"
15,0.034,"COc1cc[nH]c1/C=C1\C(=O)Nc2cccc(C#CC(O)c3ccc(OCCCN(C)C)cc3)c21 (racemic) [V, rac-(Z)-1,3-Dihydro-4-[3-[4-(3-dimethylaminopropoxy)-phenyl]-3-hydroxy-1-propynyl]-3-[(3-methoxy-1H-pyrrol-2-yl)methylene]-2H-indol-2-one]"
16,< 1,"COc1cc[nH]c1/C=C1\C(=O)Nc2cccc(C#CC(O)c3ccco3)c21 (racemic) [VV, rac-(Z)-1,3-Dihydro-4-[3-(2-furanyl)-3-hydroxy-1-propynyl]-3-[(3-methoxy-1H-pyrrol-2-yl)methylene]-2H-indol-2-one]"
17,< 1,"COc1cc[nH]c1/C=C1\C(=O)Nc2cccc(C#CC(O)c3ccc(OCC(=O)OC(C)(C)C)cc3)c21 (racemic) [XX, rac-(Z)-[4-[3-[2,3-dihydro-3-[(3-methoxy-1H-pyrrol-2-yl)methylene]-2-oxo-1H-indol-4-yl]-1-hydroxy-2-propynyl]phenoxy]acetic acid 1,1-dimethylethyl ester]"
18,< 1,"COc1cc[nH]c1/C=C1\C(=O)Nc2cccc(C#CC(O)c3ccc(OCC(=O)O)cc3)c21 (racemic) [YY, rac-(Z)-[4-[3-[2,3-dihydro-3-[(3-methoxy-1H-pyrrol-2-yl)methylene]-2-oxo-1H-indol-4-yl]-1-hydroxy-2-propynyl]phenoxy]acetic acid]"
19,< 1,"COc1cc[nH]c1/C=C1\C(=O)Nc2cccc(C#Cc3ccccn3)c21 [DDD, (Z)-1,3-Dihydro-3-[(3-methoxy-1H-pyrrol-2-yl)methylene]-4-[(2-pyridinyl)ethynyl]-2H-indol-2-one]"
20,< 1,"COc1cc[nH]c1/C=C1\C(=O)Nc2cccc(C#Cc3ccncc3)c21 [EEE, (Z)-1,3-Dihydro-3-[(3-methoxy-1 H-pyrrol-2-yl)methylene]-4-[(4-pyridinyl)ethynyl]-2H-indol-2-one]"
21,< 1,"COc1cc[nH]c1/C=C1\C(=O)Nc2ccc([N+](=O)[O-])c(C#Cc3cccnc3)c21 [GGG, (Z)-1,3-Dihydro-3-[(3-methoxy-1H-pyrrol-2-yl)methylene]-5-nitro-4-[(3-pyridinyl)ethynyl]-2H-indol-2-one]"
22,< 1,"COc1cc[nH]c1/C=C1\C(=O)Nc2ccc(N)c(C#Cc3cccnc3)c21 [HHH, (Z)-5-Amino-1,3-dihydro-3-[(3-methoxy-1H-pyrrol-2-yl)methylene]-4-[(3-pyridinyl)ethynyl]-2H-indol-2-one]"

# Test system: MMP-3
# Assay: MG-63 Cell-Based Assay, MMP-3 release after IL-1β stimulation (ELISA)
# Conditions: Homo sapiens, MG63 cells, IL-1β stimulated, 24 hours with compound, read-out: IC50 (µM) in MG63 Cells MMP3
# Source text: (§1) The MG63 cell line, a human osteosarcoma cell line, was purchased from American Type Culture Collection (ATCC; Rockville, MD) and grown in the medium recommended by ATCC. When stimulated with human IL-1β , MG63 cells release matrix metalloproteinase 3 (MMP-3), an AP-1 dependent inflammatory mediator and IL-6, a NF-κB-dependent mediator. In this assay the ability of a test compound to block MMP-3 expression and not block IL-6 expression is an indication that the compound is a selective inhibitor of the AP-1 transcription pathway.
# (§2) On day 1 the cells were plated at 2.5X10^4 cells/well in 96 well plates. After 24 hours, dexamethasone (the assay control) (Sigma, St. Louis, MO) and the test compounds were diluted to appropriate concentrations and added to the MG63 cells. The cells were incubated with the compounds for 24 hours after which the supernatants were removed and analyzed by ELISA.
# (§3) In the ELISA, 96 well plates were coated with antibody to MMP-3 or IL-6. Supernatants were added to the coated plates and any antigen (MMP-3 or IL-6) in the supernatant bound to the antibody coated on the plates. The plates were then washed with PBS containing 0.05% Tween 20 (Sigma, St. Louis, MO) and the biotinylated secondary antibody was added. This secondary antibody binds to the already bound antigen creating a "sandwich effect". Plates were washed as described above and horseradish peroxidase (HRP)-streptavidin conjugate (Sigma, St. Louis, MO) was added to the plates. HRP-streptavidin bound to the biotin-antibody conjugate. The plates were washed and TMB substrate (Kirkegaard and Perry Labs, Gaithersburg, MD) was added to the wells. This substrate changes color in the presence of HRP-streptavidin. The intensity of the color (measured at 450 nm) is proportional to the amount of MMP-3 or IL-6 produced by the MG63 cells upon exposure to IL-1β and the test compounds. Optical density values were converted to concentration (pg/ml or Units/ml) based on a standard curve included in the assay. IC50 values for each test compound were determined from the linear regression of a plot of the logarithm of the concentration of compound versus amount of MMP-3 or IL-6 secreted. (The MMP-3 antibodies were prepared in-house using standard hybridoma technology and the IL-6 antibodies were obtained from either Genzyme, Cambridge, MA or Pharmingen, San Diego, CA.).
row,IC50 [µM],Structure (SMILES)
1,< 12.5,"C#CC(O)c1ccc[nH]1 (stereo not drawn) [CC, 3-Hydroxy-3-(1H-pyrrol-2-yl)-1-propyne]"

# Test system: IL-6
# Assay: MG-63 Cell-Based Assay, IL-6 release after IL-1β stimulation (ELISA)
# Conditions: Homo sapiens, MG63 cells, IL-1β stimulated, 24 hours with compound, read-out: IC50 (µM) in MG63 Cells IL6
# Source text: as §1, §2, §3
row,IC50 [µM],Structure (SMILES)
1,< 20,"C#CC(O)c1ccc[nH]1 (stereo not drawn) [CC, 3-Hydroxy-3-(1H-pyrrol-2-yl)-1-propyne]"
